Experimental data taken from ChEMBL document CHEMBL6182948 (J Med Chem, 2025).

What was measured:
Cytochrome P450 1A2 = biological target: T1, Cytochrome P450 1A2 (Homo sapiens, UniProt P05177); test: Inhibition of human recombinant CYP1A2 using 7-ethoxyresorufin as substrate incubated under dark condition for 45 mins in presence of NADPH by EROD fluorescence assay; type: ADME
T1 sequence (P05177 whole entry): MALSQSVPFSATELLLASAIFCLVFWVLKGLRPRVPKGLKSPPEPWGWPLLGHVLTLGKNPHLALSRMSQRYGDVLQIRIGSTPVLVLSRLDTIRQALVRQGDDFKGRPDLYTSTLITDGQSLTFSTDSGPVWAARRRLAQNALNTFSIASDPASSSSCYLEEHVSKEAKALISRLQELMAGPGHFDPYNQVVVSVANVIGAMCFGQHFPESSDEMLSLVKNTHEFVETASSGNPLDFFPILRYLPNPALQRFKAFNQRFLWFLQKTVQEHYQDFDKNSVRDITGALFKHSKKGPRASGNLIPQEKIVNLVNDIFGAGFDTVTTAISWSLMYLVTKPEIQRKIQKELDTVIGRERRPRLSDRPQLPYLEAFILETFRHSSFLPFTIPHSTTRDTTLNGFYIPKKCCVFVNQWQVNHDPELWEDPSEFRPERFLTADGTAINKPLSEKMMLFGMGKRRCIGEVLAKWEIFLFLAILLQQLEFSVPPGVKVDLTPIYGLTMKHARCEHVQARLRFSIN

Homo sapiens [1] = species on record: Homo sapiens; test: Selectivity index, ratio of IC50 for human recombinant CYP1A1 to IC50 for human recombinant CYP1B1 using 7-ethoxyresorufin as substrate
Cytochrome P450 1A1 = biological target: T2, Cytochrome P450 1A1 (Homo sapiens, UniProt P04798); test: Inhibition of human recombinant CYP1A1 using 7-ethoxyresorufin as substrate incubated under dark condition for 15 mins in presence of NADPH by EROD fluorescence assay; type: ADME
T2 sequence (P04798 whole entry): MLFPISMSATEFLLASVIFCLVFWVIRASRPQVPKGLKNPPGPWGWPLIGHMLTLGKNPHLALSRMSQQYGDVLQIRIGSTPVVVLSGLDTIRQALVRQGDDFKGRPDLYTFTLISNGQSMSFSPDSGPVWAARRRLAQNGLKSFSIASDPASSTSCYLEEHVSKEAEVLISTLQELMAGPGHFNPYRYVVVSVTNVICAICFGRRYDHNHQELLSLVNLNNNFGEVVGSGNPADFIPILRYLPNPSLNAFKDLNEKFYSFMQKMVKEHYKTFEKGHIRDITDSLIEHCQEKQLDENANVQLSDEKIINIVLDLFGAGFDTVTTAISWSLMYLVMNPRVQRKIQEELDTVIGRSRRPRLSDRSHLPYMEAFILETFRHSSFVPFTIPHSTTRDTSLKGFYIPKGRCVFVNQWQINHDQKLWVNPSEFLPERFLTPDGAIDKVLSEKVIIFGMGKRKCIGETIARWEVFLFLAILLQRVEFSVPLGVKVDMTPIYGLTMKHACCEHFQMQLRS

Homo sapiens [2] = species on record: Homo sapiens; test: Selectivity index, ratio of IC50 for human recombinant CYP1A2 to IC50 for human recombinant CYP1B1 using 7-ethoxyresorufin as substrate
Cytochrome P450 1B1 = biological target: T3, Cytochrome P450 1B1 (Homo sapiens, UniProt Q16678); test: Inhibition of human recombinant CYP1B1 using 7-ethoxyresorufin as substrate incubated under dark condition for 30 mins in presence of NADPH by EROD fluorescence assay; type: ADME
T3 sequence (Q16678 whole entry): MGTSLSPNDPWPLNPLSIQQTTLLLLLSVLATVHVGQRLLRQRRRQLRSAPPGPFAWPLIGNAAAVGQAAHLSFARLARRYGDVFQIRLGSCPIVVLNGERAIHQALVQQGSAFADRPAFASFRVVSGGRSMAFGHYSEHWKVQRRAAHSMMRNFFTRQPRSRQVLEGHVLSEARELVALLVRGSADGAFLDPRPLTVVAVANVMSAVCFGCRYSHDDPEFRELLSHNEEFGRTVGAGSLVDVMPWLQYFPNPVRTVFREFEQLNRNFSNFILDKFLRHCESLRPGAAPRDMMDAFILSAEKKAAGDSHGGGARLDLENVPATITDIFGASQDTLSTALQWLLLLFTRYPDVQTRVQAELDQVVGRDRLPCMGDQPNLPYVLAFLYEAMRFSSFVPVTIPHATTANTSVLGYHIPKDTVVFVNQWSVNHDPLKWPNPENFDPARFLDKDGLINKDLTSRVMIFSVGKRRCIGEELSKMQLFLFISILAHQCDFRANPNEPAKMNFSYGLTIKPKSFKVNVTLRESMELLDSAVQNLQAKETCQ

Row | IC50 (Cytochrome P450 1A2) [nM] | Ratio IC50 (Homo sapiens [1]) | IC50 (Cytochrome P450 1A1) [nM] | Ratio IC50 (Homo sapiens [2]) | IC50 (Cytochrome P450 1B1) [nM] | Compound
1 | > 100000 | 2.2 | 226 | > 990 | 101 | CCc1sc(C(=O)Nc2cc(Cl)cc(Cl)c2)nc1-c1ccc(F)cc1
2 | 178 | 107 | 129 | 147 | 1.21 | O=C(Nc1cc(Cl)cc(Cl)c1)c1nc(-c2ccccc2F)cs1
3 | 248 | 142 | 69.2 | 510 | 0.49 | O=C(Nc1ccc(C(F)(F)F)cc1)c1nc(-c2ccc(Cl)cc2)cs1
4 | > 10000 | 71.8 | 135 | > 5320 | 1.88 | Cc1sc(C(=O)Nc2ccc(C(F)(F)F)cc2)nc1-c1cccc(Cl)c1
5 | > 10000 | 108 | 414 | > 2610 | 3.83 | COc1cc(NC(=O)c2nc(-c3ccc(F)cc3)cs2)cc(OC)c1
6 | 3650 | 55.4 | 69.2 | 2920 | 1.25 | Cc1sc(C(=O)Nc2cc(Cl)cc(Cl)c2)nc1-c1ccc(F)cc1
7 | 2700 | 61.9 | 188 | 889 | 3.04 | Cc1sc(C(=O)Nc2ccc(OC(F)F)cc2)nc1-c1cccc(F)c1
8 | 5010 | 32 | 64.4 | 2490 | 2.01 | NC(=O)c1cccc(-c2csc(C(=O)Nc3ccc(OC(F)F)cc3)n2)c1
9 | 5550 | 6.2 | 72 | 481 | 11.5 | N#Cc1ccc(-c2csc(C(=O)Nc3cc(Cl)cc(Cl)c3)n2)cn1
10 | 4240 | 195 | 277 | 2990 | 1.42 | O=C(Nc1cc(Cl)cc(Cl)c1)c1nc(-c2ccc(F)cc2)cs1
11 | > 100000 | 0.7 | 167 | > 413 | 242 | CC(=O)Nc1ccc(-c2csc(C(=O)Nc3cc(Cl)cc(Cl)c3)n2)cc1
12 | 441 | 22.1 | 597 | 16.3 | 27 | O=C(Nc1ccccc1)c1nc(-c2ccccc2)cs1
13 | 1410 | 138 | 122 | 1600 | 0.88 | Cc1sc(C(=O)Nc2cc(Cl)cc(Cl)c2)nc1-c1cccc(F)c1
14 | > 10000 | 25.2 | 43.1 | > 5850 | 1.71 | Cc1sc(C(=O)Nc2cc(Cl)cc(Cl)c2)nc1-c1cccc(Cl)c1
15 | 422 | 426 | 123 | 1470 | 0.29 | O=C(Nc1ccc(C(F)(F)F)cc1)c1nc(-c2cccc(F)c2)cs1
16 | 1330 | 266 | 386 | 912 | 1.45 | O=C(Nc1cc(Cl)cc(Cl)c1)c1nc(-c2ccc(Cl)cc2)cs1
17 | 12700 | 4.8 | 9310 | 6.5 | 1950 | O=C(Nc1cc(Cl)cc(Cl)c1)c1nc(-c2ccc(-c3ccccc3)cc2)cs1
18 | 324 | 104 | 150 | 225 | 1.44 | O=C(Nc1ccc(I)cc1)c1nc(-c2cccc(F)c2)cs1
19 | 2380 | 77.4 | 149 | 1240 | 1.92 | O=C(Nc1ccc(Cl)cc1Cl)c1nc(-c2cccc(F)c2)cs1

Row | IC50 (Cytochrome P450 1A2) [nM] | Ratio IC50 (Homo sapiens [1]) | IC50 (Cytochrome P450 1A1) [nM] | Ratio IC50 (Homo sapiens [2]) | IC50 (Cytochrome P450 1B1) [nM] | Compound
20 | > 100000 | 41.7 | 128 | > 32600 | 3.07 | Cc1sc(C(=O)Nc2ccc(OC(F)F)cc2)nc1-c1cccc(Cl)c1
21 | > 50000 | 7.8 | 70 | > 5550 | 9.02 | N#Cc1cccc(-c2csc(C(=O)Nc3ccc(OC(F)F)cc3)n2)c1
22 | 641 | 31.9 | 127 | 162 | 3.97 | O=C(Nc1ccc(I)cc1)c1nc(-c2ccc(F)cc2)cs1
23 | 601 | 4.3 | 266 | 9.7 | 62 | Cc1ccccc1-c1csc(C(=O)Nc2cc(Cl)cc(Cl)c2)n1
24 | 17100 | > 454 | > 100000 | 77.6 | 220 | COc1ccc(-c2csc(C(=O)Nc3cc(Cl)cc(Cl)c3)n2)cc1
25 | 142 | 88.3 | 197 | 63.6 | 2.23 | O=C(Nc1ccc(Cl)cc1Cl)c1nc(-c2ccccc2F)cs1
26 | 38400 | > 3650 | > 100000 | 1400 | 27.4 | O=C(Nc1cc(Cl)cc(Cl)c1)c1nc(-c2ccc([N+](=O)[O-])cc2)cs1
27 | 8340 | 6.8 | 962 | 58.7 | 142 | Nc1ccc(-c2csc(C(=O)Nc3cc(Cl)cc(Cl)c3)n2)cc1
28 | 330 | 65.1 | 58.3 | 368 | 0.9 | O=C(Nc1ccc(OC(F)F)cc1)c1nc(-c2ccc(Cl)cc2)cs1
29 | 213 | 437 | 404 | 230 | 0.93 | O=C(Nc1ccc(F)cc1F)c1nc(-c2ccc(F)cc2)cs1
30 | 14700 | 55.1 | 566 | 1430 | 10.3 | Cc1ccc(-c2csc(C(=O)Nc3cc(Cl)cc(Cl)c3)n2)cc1
31 | 4390 | > 3790 | > 100000 | 167 | 26.4 | O=C(Nc1cc(Cl)cc(Cl)c1)c1nc(-c2ccc(Br)cc2)cs1
32 | > 100000 | 7.3 | 21.4 | > 34100 | 2.93 | N#Cc1cccc(-c2csc(C(=O)Nc3ccc(C(F)(F)F)cc3)n2)c1
33 | 820 | 122 | 58.1 | 1730 | 0.47 | O=C(Nc1ccc(OC(F)F)cc1)c1nc(-c2ccc(F)cc2)cs1
34 | 608 | 323 | 346 | 567 | 1.07 | O=C(Nc1ccc(C(F)(F)F)cc1)c1nc(-c2ccc(F)cc2)cs1
35 | > 10000 | > 12500 | > 100000 | > 1250 | 7.97 | NC(=O)c1ccc(-c2csc(C(=O)Nc3cc(Cl)cc(Cl)c3)n2)cc1
36 | 40300 | 18.2 | 758 | 967 | 41.6 | O=C(Nc1cc(Cl)cc(Cl)c1)c1nc(-c2ccc(O)cc2)cs1
37 | 670 | 99.6 | 52.8 | 1270 | 0.53 | O=C(Nc1ccc(C(F)(F)F)cc1)c1nc(-c2cccc(Cl)c2)cs1
